Common to all, as to type: cell-based
Test [1] addresses T1, human glucagon-like peptide 1 receptor (GLP-1R) (Homo sapiens, UniProt P43220).
T1 construct: expressed in transfected cells
Briefly: GLP-1 receptor efficacy assay (cAMP AlphaScreen, CHO cells). To be noted: for Ratio GLP-1/Glucagon: EC50 [GLP-1R] / EC50 [Glucagon-R], human receptors in CHO-K1. The method in brief:
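Stably transfected CHO clones expressing human receptor, stimulated 15 min at room temperature with increasing peptide concentrations in KRBH (10 mM HEPES, 5 mM NaHCO3, 0.1% BSA) plus 0.1 mM IBMX. Cells lysed, and cAMP quantified by AlphaScreen after 1 h bead incubation in the dark.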
For orientation: Alpha assays give light when donor and acceptor beads are brought close together.

In test [2] the target is T2, endogenous GLP-1 receptors (Mus musculus, UniProt O35659).
T2 construct: Agonistic activity of the test compounds on endogenous GLP-1 receptors; endogenous in cells
T2 sequence (O35659 22-463): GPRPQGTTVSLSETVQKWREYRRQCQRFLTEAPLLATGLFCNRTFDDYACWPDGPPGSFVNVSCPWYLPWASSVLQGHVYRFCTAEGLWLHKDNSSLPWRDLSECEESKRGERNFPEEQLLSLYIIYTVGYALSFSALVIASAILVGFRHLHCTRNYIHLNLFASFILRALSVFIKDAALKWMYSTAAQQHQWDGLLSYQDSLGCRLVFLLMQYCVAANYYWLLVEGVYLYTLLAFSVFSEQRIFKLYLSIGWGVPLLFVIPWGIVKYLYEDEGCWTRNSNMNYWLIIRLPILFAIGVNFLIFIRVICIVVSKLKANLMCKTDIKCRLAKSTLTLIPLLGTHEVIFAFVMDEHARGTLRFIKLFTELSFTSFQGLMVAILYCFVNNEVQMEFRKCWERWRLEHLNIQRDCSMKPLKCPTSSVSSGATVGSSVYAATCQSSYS
The experiment in a line: Agonistic activity on endogenous GLP-1 receptor, cAMP in murine insulinoma cell line. The conditions noted are these: intracellular cAMP. Here is the method: Agonistic activity of the test compounds on endogenous GLP-1 receptors was determined using a murine insulinoma cell line. Intracellular cAMP was used as an indicator of receptor activation.
Cells were cultured for 24 h at a density of 10,000 cells/well in a 384-well plate. Medium was removed and 10 μL KRBH buffer (NaCl 130 mM, KCl 3.6 mM, NaH2PO4 0.5 mM, MgSO4 0.5 mM, CaCl2 1.5 mM) containing test compound or GLP-1 (at increasing concentrations from 0.1 pM to 100 nM) or solvent control (0.1% (v/v) DMSO) was added to the wells for 15 minutes at a temperature of 26° C.
The cellular cAMP content is measured using the AlphaScreen cAMP Functional Assay Kit (Perkin Elmer). Measurement was performed using the Envision (PerkinElmer) according to manufacturer's recommendations.
All measurements were performed in quadruplicate.
The resulting cAMP curves were plotted as absolute cAMP concentrations (nM) over log (test compound concentration) and analyzed using the curve fitting program XLfit.

In test [3] the target is T3, human glucagon receptor (Glucagon-R) (Homo sapiens, UniProt P47871).
T3 construct: expressed in transfected cells
T3 sequence (P47871 26-477): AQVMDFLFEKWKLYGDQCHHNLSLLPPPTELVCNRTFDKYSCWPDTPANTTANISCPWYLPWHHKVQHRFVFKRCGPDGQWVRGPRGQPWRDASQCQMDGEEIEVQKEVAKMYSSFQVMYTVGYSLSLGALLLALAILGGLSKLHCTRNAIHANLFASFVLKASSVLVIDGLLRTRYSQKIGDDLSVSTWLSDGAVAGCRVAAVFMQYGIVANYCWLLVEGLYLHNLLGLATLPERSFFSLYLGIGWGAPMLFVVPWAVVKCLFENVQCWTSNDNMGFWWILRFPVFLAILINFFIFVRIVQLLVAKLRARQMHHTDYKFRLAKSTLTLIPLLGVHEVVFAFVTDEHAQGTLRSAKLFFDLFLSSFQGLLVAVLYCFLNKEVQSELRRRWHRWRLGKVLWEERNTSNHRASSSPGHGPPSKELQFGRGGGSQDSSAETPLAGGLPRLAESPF
The experiment in a line: Glucagon receptor efficacy assay (cAMP AlphaScreen, CHO cells). To be noted: cAMP formation, CHO cells expressing human Glucagon-R; read-out: EC50 hGCGR CHO-K1. Here is the method:
The mammalian expression vectors encoding the Glucagon-R or the GLP-1-R were transfected into Chinese hamster ovary (CHO) cells by the Attractene method. Stably expressing clones were obtained by Zeocin selection (250 μg/mL) upon limited dilution of cells resistant to the selection pressure. […] One Glucagon-R expressing clone and one GLP-1-R expressing clone were chosen for compound profiling.
CHO cells expressing the human Glucagon-R, or human GLP-1-R were seeded 24 hours prior to the assay at 30,000 cells per well in 96-well microtiter plates in culture in 100 μl growth medium. On the day of analysis, growth medium was removed and the cells were washed once with 200 μl of assay buffer (Krebs-Ringer-buffer—KRBH). The buffer was removed and the cells were incubated for 15 min at room temperature in 10 μl KRBH (KRBH+10 mM HEPES, 5 mM NaHCO3, 0.1% (V/V) BSA) with 0.1 mM IBMX in deionized water containing increasing concentrations of test peptides. The reaction was stopped by the addition of lysis buffer (0.1% w/v BSA, 5 mM HEPES, 0.3% v/v Tween-20). After cell lysis for 10 min at room temperature, lysates were transferred to 384-well plates and 10 μl of acceptor/donorbead mixture as contained in the AlphaScreen™ cAMP Functional Assay Kit was added. After one hour of incubation at room temperature in the dark, the cAMP content was determined applying the AlphaScreen™ cAMP Functional Assay Kit from Perkin-Elmer according to manufacturer instructions. […] The GLP-1/glucagon ratio is calculated as defined earlier.

Starred links: 1 amine or outer side, 2 acyl side, 3 side chain; linkers in the order of their positions; H or OH if unused. Non-standard residues stand in square brackets, D forms with d. Residues, ends and D or L forms follow the SMILES beside them. Groups on a side chain read outwards from the residue. *: point of attachment. γGlu = O=C(O)[C@H](CCC(=O)[*:2])N[*:1]; Palmitoyl = CCCCCCCCCCCCCCCC(=O)*; Ac4c = NC1(C(=O)O)CCC1; Aib = CC(C)(N)C(=O)O

T1 sequence (P43220 24-463): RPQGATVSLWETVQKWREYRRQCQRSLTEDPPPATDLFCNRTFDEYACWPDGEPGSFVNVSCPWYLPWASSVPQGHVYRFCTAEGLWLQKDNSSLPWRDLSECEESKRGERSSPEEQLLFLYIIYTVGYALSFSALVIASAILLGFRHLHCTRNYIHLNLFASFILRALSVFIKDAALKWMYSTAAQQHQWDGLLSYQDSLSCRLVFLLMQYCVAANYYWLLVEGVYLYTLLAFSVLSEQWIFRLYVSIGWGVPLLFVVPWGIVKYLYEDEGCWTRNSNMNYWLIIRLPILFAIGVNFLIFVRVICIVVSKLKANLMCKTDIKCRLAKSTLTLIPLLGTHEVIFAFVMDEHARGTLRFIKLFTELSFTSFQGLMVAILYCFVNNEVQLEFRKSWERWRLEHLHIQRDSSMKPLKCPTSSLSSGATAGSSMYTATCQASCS

On to `CCCCCCCCCCCCCCCC(=O)N[C@@H](CCC(=O)NCCCC[C@H](NC(=O)[C@H](CO)NC(=O)[C@H](CC(=O)O)NC(=O)[C@H](CC(C)C)NC(=O)[C@H](Cc1ccc(O)cc1)NC(=O)[C@H](CCCCN)NC(=O)[C@H](CO)NC(=O)[C@H](Cc1ccc(O)cc1)NC(=O)[C@H](CC(=O)O)NC(=O)[C@H](CO)NC(=O)[C@@H](NC(=O)[C@H](Cc1ccccc1)NC(=O)[C@@H](NC(=O)CNC(=O)[C@H](Cc1c[nH]cn1)NC(=O)C1(NC(=O)[C@@H](N)Cc2c[nH]cn2)CCC1)[C@@H](C)O)[C@@H](C)O)C(=O)N[C@@H](C)C(=O)N[C@@H](C)C(=O)N[C@@H](Cc1c[nH]cn1)C(=O)N[C@@H](CC(=O)O)C(=O)N[C@@H](Cc1ccccc1)C(=O)N[C@H](C(=O)N[C@@H](CCC(=O)O)C(=O)N[C@@H](Cc1c[nH]c2ccccc12)C(=O)N[C@@H](CC(C)C)C(=O)N[C@@H](CC(C)C)C(=O)N[C@@H](CO)C(=O)N[C@@H](C)C(N)=O)C(C)C)C(=O)O` [Compound 9] (H-H[Ac4c]HGTFTSDYSKYLDSK([γGlu-Palmitoyl])AAHDFVEWLLSA-NH2), for which the “Ratio GLP-1/Glucagon” value in test [1] amounted to 1.65. The EC50 came to 0.21 nM in test [2] and 0.2 nM in test [3].

On to `CCCCCCCCCCCCCCCC(=O)N[C@@H](CCC(=O)NCCCC[C@H](NC(=O)[C@H](CCC(=O)O)NC(=O)[C@H](CC(=O)O)NC(=O)[C@H](CC(C)C)NC(=O)[C@H](Cc1ccc(O)cc1)NC(=O)[C@H](CCCCN)NC(=O)[C@H](CO)NC(=O)[C@H](Cc1ccc(O)cc1)NC(=O)[C@H](CC(=O)O)NC(=O)[C@H](CO)NC(=O)[C@@H](NC(=O)[C@H](Cc1ccccc1)NC(=O)[C@@H](NC(=O)CNC(=O)[C@H](CCC(N)=O)NC(=O)C(C)(C)NC(=O)[C@@H](N)Cc1c[nH]cn1)[C@@H](C)O)[C@@H](C)O)C(=O)N[C@@H](C)C(=O)N[C@@H](C)C(=O)N[C@@H](CCCCN)C(=O)N[C@@H](CC(=O)O)C(=O)N[C@@H](Cc1ccccc1)C(=O)N[C@H](C(=O)N[C@@H](CCC(=O)O)C(=O)N[C@@H](Cc1c[nH]c2ccccc12)C(=O)N[C@@H](CC(C)C)C(=O)N[C@@H](CCC(=O)O)C(=O)N[C@@H](CCC(=O)O)C(=O)N[C@@H](CCC(=O)O)C(N)=O)[C@@H](C)CC)C(=O)O` [Compound 17] (H-H[Aib]QGTFTSDYSKYLDEK([γGlu-Palmitoyl])AAKDFIEWLEEE-NH2), for which the “Ratio GLP-1/Glucagon” value in test [1] is given as 3.38. Further, the half-maximal effective concentration (EC50) in test [1] (cAMP formation, CHO cells expressing human GLP-1-R, read-out: EC50 hGLP-1R CHO-K1) was 0.27 nM; in test [2] it was 0.21 nM.

One may read the EC50 as the concentration that produces a half-maximal response.

The values are drawn from patent US9988429B2, “Glucagon analogues” (Zealand Pharma A/S, priority 2013, dated 2018).
